Assays:
Format in all cases: in vivo
[1] = system: mouse breast cancer cell line 4T1-Luc2 AcGFP; experiment: Antitumor effect in mouse breast cancer cell line (4T1-Luc2 AcGFP) graft model; details: BALB/c mice, anti-PD-1 antibody 0.2 mg/mouse intraperitoneal day 0, 4, 7, 11
Method: Example 1 Antitumor effect by combination of compound A and anti-PD-1 antibody in mouse breast cancer cell line (4T1-Luc2 AcGFP) graft model
The antitumor effect of administering compound A and anti-PD-1 antibody was evaluated in BALB/c mice (BALB/cAriNCriCrij, female, Japan Charles River) with 6 mice per group.
The mouse breast cancer cell line 4T1 (ATCC) was seeded in a 6-well microplate (Falcon), at a cell count of 1.5×10^5 per well. The culture medium used was RPMI-1640 medium containing 10% FBS, penicillin, streptomycin and 2-mercaptoethanol (FujiFilm-Wako). The seeded cells were cultured overnight using an incubator under conditions of 5% CO2, 37° C. The culture medium was replaced on the following day.
Vector pPBcmvIP-mcs was constructed from PB-CMV-MCS-EF1α-Puro vector (SBI; Catalog No.: PB510B-1), removing EF1-Puro and substituting 1RES-Puro. A Luc2/AcGFP fusion gene was then inserted between the pPBcinvIP-mcs CMV promoter and IRES to express Luciferase (Luc) and Green Fluorescent Protein (GFP), to obtain vector pPBcinvIP Luc2-AcGFP. During the process of constructing each vector, insertion of the separated fragments was confirmed by an established method.
The vector pPBcrnvIP Luc2-AcGFP in 10 mM Tris-C1 (pH 8.0) and 1 mlbJ EDTA (pH 8.0) (“TE Buffer”) (1.67 μg), Super PiggyBac Transposase Expression Vector (System Biosciences, LLC) in TE Buffer (0.33 μg) and X-treamGene reagent (Roche) (8 μL) were mixed, and the mixture was adjusted to a total amount of 210 μL with Opti-MEM (Thermo Fischer Scientific). The obtained mixture was allowed to stand at room temperature for 15 minutes, and then added to the cultured 4T1 cells. The medium was exchanged and subculturing was carried out in a T75 flask, after which culturing was continued under conditions of 5% CO2, 37° C. After 4 days, culturing was carried out in 2 μg/mL puromycin-containing medium.
Cells were selected twice with a flow cytometer, using AcGFP positivity as the marker. A mycoplasma removal reagent was added to the cells and culturing was continued for 8 days.
Cells of the mouse breast cancer cell line 4T1-Luc2 AcGFP established by the method described above were suspended in HBSS (FujiFilm-Wako) to a concentration of 2×10^7/mL. The mixture was grafted into mammary gland fat of BALB/c (BALB/cAriNCriCrlj, female. Japan Charles River) in amounts of 0.05 mL each, and the antitumor effect was evaluated.
(§1) On the 4th day after grafting, the long and short diameters of the tumors were measured using an electronic digital caliper (Digimatic™ caliper by Mitsutoyo Corp.), The mice were divided into groups in such a manner that the average tumor volumes were the same in each group. The tumor volumes were calculated by the following formula.
(§2) Tumor volume (mm)=Long diameter (n)×short diameter (mm)×short diameter (mm)/2
Compound A was dissolved in water for injection (Otsuka Pharmaceutical Factory, Inc.) to a concentration of 2.5 mg/mL. The anti-mouse PD-1 antibody (BioXcell) was diluted with PBS(−) (FujiFilm-Wako) to a concentration of 1 mg/mL. […]
With the starting day of administration defined as day 0, the tumor volume of each mouse was measured on day 4, day 7, day 11 and day 14.
The tumor volume on day 14 was statistically analyzed by a One-way ANOVA statistical test, or if […] was found in the test, by the Tukey-Kramer method. […]

[2] = system: mouse hepatocellular carcinoma cell line BNL 1 ME A.7R.1; experiment: Antitumor effect in mouse hepatocellular carcinoma cell line (BNL 1 ME A.7R.1) graft model
Method: Example 3 Antitumor effect by combination of compound A and anti-PD-1 antibody in mouse hepatocellular carcinoma cell line (BNI, 1 ME A.7R.1) graft model
The antitumor effect of administering compound A and anti-M-1 antibody was evaluated in BALB/c mice (BALB/cAnNCriCrli, female, Japan Charles River) with 10 mice per group.
The grafted cells were pre-conditioned in BALB/c mice, A suspension of the mouse hepatocellular carcinoma cell line line BNL 1 ME A.7R.1 (ATCC) was subcutaneously grafted onto the right side of BALB/c mice (BALB/cArtNCriCrlj, male, Japan Charles River), at 5×10^6 cells per mouse. After grafting, the formed tumors were extracted and finely cut. The mixture was then stirred with a GentleMACS (Miltenvi Biotec K.K.) to obtain a monocellular suspension. After passing through a cell strainer, the cells were collected by centrifugation and cultured.
(§3) The mouse hepatocellular carcinoma cell line BNL 1 ME A.7R.1 established by this method was suspended in HBSS to a concentration of 1×10^8/mL. The mixture was subsequently grafted onto the right side of BALB/c (BALB/cAnNCrICrlj, female, Japan Charles River) in amounts of 0.1 mL each, and the antitumor effect was evaluated.
as §1, with “(Digimaticlm” for “(Digimatic™”, “Corp.).” for “Corp.),”
Tumor volume […]=Long diameter (mm)×short diameter (mm)×short diameter (mm)/2
(§4) Compound A was dissolved in water for injection (Otsuka Pharmaceutical Factory, Inc.) to a concentration of 2.5 mg/mL. The anti-mouse PD-1 antibody (BioXcell) was diluted with physiological saline (Otsuka Pharmaceutical Factory, Inc.) to a concentration of 1 mg/mL.
(§5) Mice in the compound A administration group were given compound A 1w oral administration at a dose of 25 mg/kg (10 mL/kg), once per day for 7 days. Mice in the anti-PD-1 antibody administration group were intraperitoneally administered a dose of 200 μg/mouse (200 μL/mouse) on day 0 and day 3, where the starting day of administration was defined as day 0. The mice in the compound A and anti-PD-1 antibody combination group were administered both drugs in the same manner described above.
With the starting day of administration defined as day 0, the tumor volume of each mouse was measured on day 3 and day 7.
The tumor volumes in the control group and in each group on day 7 were compared in Dunnett's multiple comparison test. The final significance level was as follows.

[3] = system: mouse renal cell carcinoma cell line RAG; experiment: Antitumor effect in mouse renal cell carcinoma cell line (RAG) graft model
Method: Example 2 Antitumor effect by combination of compound A and anti-PD-1 antibody in mouse renal cell carcinoma cell line (RAG) graft model
The antitumor effect of administering compound A and anti-PD-1 antibody was evaluated in BALB/c mice (BALB/cAnNCriCrlj, female, Japan Charles River) with 10 mice per group.
The grafted cells were pre-conditioned in BALB/c mice. The mouse renal cell carcinoma cell line RAG (ATCC) was suspended in EIBSS to a concentration of 2×10^8/mL. An equal volume of Matrigel™ matrix (Japan Becton Dickinson) was added to and thoroughly mixed with the suspension. The mixture was subcutaneously grafted on the right side of BALB/c mice (BALB/cAnNCriCrlj, female, Japan Charles River), at 0.1 mL each. After grafting, the formed tumors were extracted and finely cut. A Tumor Dissociation Kit, Mouse (Miltenyi Biotec K.K.) was then used for stirring in a GentleMACS (Miltenyi Biotec K.K.) to obtain a monocellular suspension. After passing through a 70 μm cell strainer, the cells were collected by centrifugation and cultured in medium containing 10% bovine serum.
as §3, with “renal cell” for “hepatocellular”, “RAG” for “BNL 1 ME A.7R.1”, “[…].” for “1×10^8/mL.”, “(BALB/cAnNCriCrij,” for “(BALB/cAnNCrICrlj,”
as §1, with “7th” for “4th”, “(Digirnatic™” for “(Digimatic™”, “Corp.).” for “Corp.),”
as §2, §4
as §5, with “by” for “1w”, “days,” for “days.”, “lig/mouse” for “μg/mouse”
With the starting day of administration defined as day 0, the tumor volume of each mouse was measured on day 3 and day 7, The mean tumor volumes in each group are shown in Table 2 and FIG. 2. […]

[4] = day 7, Dunnett's multiple comparison test

In the case of CNC(=O)n1ccc2cc(Oc3ccnc(NC(=O)c4ccc(C5CCN(CCO)CC5)cc4)c3)c(OCCOC)cc21 [Compound A, 5-((2-(4-(1-(2-hydroxyethyl)piperidin-4-yl)benzamide)pyridin-4-yl)oxy)-6-(2-methoxyethoxy)-N-methyl-1H-indole-1-carboxamide], the “mean tumor volume, Day 0” value ([1]; Day 0 (starting day of administration), 6 per group, compound A 25 mg/kg oral once per day for 14 days) is reported as 77.3 mm^3, the “mean tumor volume, Day 4” value ([1]; Day 4, compound A 25 mg/kg oral once per day) is reported as 139.0 mm^3 and the “mean tumor volume, Day 7” value ([1]; Day 7, compound A 25 mg/kg oral once per day) is reported as 131.2 mm^3. For the same compound, the “mean tumor volume, Day 11” value ([1]; Day 11, compound A 25 mg/kg oral once per day) was 226.0 mm^3, the “mean tumor volume, Day 14” value ([1]; Day 14, compound A 25 mg/kg oral once per day) was 314.6 mm^3 and the “mean tumor volume, Day 0” value ([2]; Day 0 (starting day of administration), BALB/c mice, 10 per group, compound A 25 mg/kg oral once per day for 7 days, anti-PD-1 antibody 200 μg/mouse intraperitoneal day 0 and 3) was 109.0 mm^3. For the same compound, the “mean tumor volume, Day 3” value ([2]; Day 3, BALB/c mice, compound A 25 mg/kg oral once per day, anti-PD-1 antibody 200 μg/mouse intraperitoneal day 0 and 3) was 223.6 mm^3, the “mean tumor volume, Day 7” value ([2]; Day 7, BALB/c mice, compound A 25 mg/kg oral once per day, anti-PD-1 antibody 200 μg/mouse intraperitoneal day 0 and 3) was 221.4 mm^3 and the “difference in tumor volume between the control group and the treatment group” value [2, 4] was “No statistically significant difference”. For the same compound, the “mean tumor volume, Day 0” value ([3]; Day 0 (starting day of administration), BALB/c mice, 10 per group, compound A 25 mg/kg oral once per day for 7 days, anti-PD-1 antibody 200 ug/mouse intraperitoneal day 0 and 3) was 58.8 mm^3, the “mean tumor volume, Day 3” value ([3]; Day 3, BALB/c mice, compound A 25 mg/kg oral once per day, anti-PD-1 antibody 200 ug/mouse intraperitoneal day 0 and 3) was 72.5 mm^3 and the “mean tumor volume, Day 7” value ([3]; Day 7, BALB/c mice, compound A 25 mg/kg oral once per day, anti-PD-1 antibody 200 ug/mouse intraperitoneal day 0 and 3) was 107.5 mm^3. For the same compound, the “difference in tumor volume between the control group and the treatment group” value [3, 4] was “No statistically significant difference”.

Source: patent US20230330081A1, “PHARMACEUTICAL COMPOSITION FOR TREATING TUMORS” (EISAI R&D MANAGEMENT CO., LTD., priority 2020, published 2023)
